From US12042547B2, “Method for producing luminescent particles, luminescent particles, and bioimaging material” (KYULUX, INC., priority 2018, dated 2024)

Test: Evaluation of luminescence properties (emission maximum, PL quantum yield, emission lifetime)
Format: physicochemical
Settings: toluene solution 1.0×10^−5 mol/L, 340-nm excitation
Method: The following examples illustrate the present invention in greater detail. It is to be understood that changes may be made to the below-described materials, processing manner, processing procedure, etc. without departing from the scope of the present invention. Thus, the present invention should not be construed as limited to the following examples. An evaluation of luminescence properties was performed by using an optical spectroscope (PMA-12, manufactured by Hamamatsu Photonics K.K.), and an observation of the shape of particles was performed by using a scanning electron microscope (Inspect S, manufactured by FEI). The average diameter and the polydispersion index of luminescent particles were determined by cumulant analysis using a dynamic light scattering measurement device (DLS-8000DL, manufactured by Otsuka Electronics Co., Ltd.).
The example particles 1, the example particles 2 and the comparative particles 1 were separately dispersed in water to prepare three aqueous dispersions (0.05 μg/L). For each of the aqueous dispersions and a toluene solution of 4CzIPN (1.0×10^−5 mol/L), the emission maximum wavelength, the PL quantum yield (photoluminescence quantum yield) and the emission lifetime τ1, τ2 were measured using 340-nm excitation light.
The resulting luminescent particles contained particles having a maximum diameter of less than 1000 nm. The resulting luminescent particles were dispersed in water to prepare an aqueous dispersion (0.05 μg/L). The aqueous dispersion was subjected to measurement of the emission spectrum with 340-nm excitation light. […] The full width at half maximum (FWHM) was as narrow as 29 nm.

N#Cc1c(-n2c3ccccc3c3ccccc32)c(C#N)c(-n2c3ccccc3c3ccccc32)c(-n2c3ccccc3c3ccccc32)c1-n1c2ccccc2c2ccccc21 [4CzIPN]
Emission lifetime τ1 (after nitrogen bubbling): 16 ns | Emission lifetime τ2 (after nitrogen bubbling): 4.71 μs | Emission maximum wavelength (after nitrogen bubbling): 505 nm | PL quantum Yield (after nitrogen bubbling): 83% | Emission lifetime τ1 (before nitrogen bubbling): 11 ns | Emission lifetime τ2 (before nitrogen bubbling): 0.31 μs | Emission maximum wavelength (before nitrogen bubbling): 505 nm | PL quantum Yield (before nitrogen bubbling): 21%
